This is an account of results in patent US4434788A, “Enhancer of anti-tumor effect” (Yamasa Shoyu Kabushiki Kaisha, priority 1980, dated 1984).

Where two headings read alike, the source gives them in different places.

For data set [1], the system named is adenosinedeaminase. The following applies: cited from earlier work.
Data set [2] concerns HA-1 cells. Briefly: Survival percent of stationary-phase HA-1 cells treated with enhancer 30 minutes before X-ray irradiation. Format: cell-based, Chinese hamster. The method, then: (§1) (2) HA-1 cells under stationary phase prepared similarly as in (1), were irradiated with various doses (200 to 800 R) of X-rays for examination of effects of the enhancer on plating efficiencies of the cells. The treatment with the enhancer was conducted 30 minutes before irradiation. Measurement of plating efficiencies was carried out for the cells immediately after irradiation with X-rays.

Test in data set [3]: as above
Format: cell-based, Chinese hamster. To be noted: ha-1 cells, no irradiation, control 90, read-out: Plating efficiency of the group not irradiated with X-Rays. The method, then:
as §1

Data set [4] relates to EMT-6 tumors. Briefly: Radiosensitizing effect on EMT-6 tumor in mouse, 1500 rad, tumor size and cure. Format: in vivo, BALB/c-strain female mice.
Data set [5] deals with potentially lethal damage repair. Briefly: PLDR-inhibiting / radiosensitizing activity (general statements).
A short description of data set [6]: Plating efficiency of stationary-phase HA-1 cells given enhancer immediately after 1,000 R X-ray (inhibition of PLDR). Format: cell-based, Chinese hamster. The following applies: chinese hamster, ha-1 cells, no irradiation, control 66, read-out: Plating efficiency, treated only with enhancer (after 9 hours).
Experimental: (§2) (1) Cells under stationary phase, prepared by planting 2×10^5 cells/well of Chinese hamster-HA-1 cells in a multiwell dish and exchanging cultural medium every day starting on the third day and thereafter were irradiated with 1,000 R of X-rays. Immediately after radiation, 3'-dUrd, and 3'-dGuo in HANKs' balanced salt solution were administered. Then, after elapse of various times, the cells were taken off with trypsin, and a suitable number of cells were transferred into petri dishes for testing colony forming ability and plating efficiencies. The percentages of survival were calculated with corrections by the plating efficiencies with the pharmaceutical agents alone.
In data set [7] the test system is Chinese hamster-HA-1 cells. Described as above. Format: cell-based. The following applies: for Plating efficiency after 3 hours: control 1.8; for Plating efficiency after 6 hours: control 2.4; for Plating efficiency after 9 hours: control 3.8.
Experimental: as §2
The test system of data set [8] is EMT-6 tumors. Briefly: Enhancement of the effect of anti-tumor agents on EMT-6 tumor in mouse. Format: in vivo, BALB/c-strain mice. To be noted: for Mean tumor diameter 7 days after commencement of treatment: control 7.38; for Mean tumor diameter 14 days after commencement of treatment: control 9.20; for Mean tumor diameter ratio 7 days after commencement of treatment: control 1.27; for Mean tumor diameter ratio 14 days after commencement of treatment: control 1.57. The method, then: (1) EMT-6 tumor cells (1×10^6) were inoculated intradermally into the right thighs of BALB/c-strain mice (7 weeks old). On the 10th day after inoculation of the tumor cells and thereafter, various enhancer chemicals in physiological saline solutions were administered intrapenitoneally to the mouse every other day in the indicated doses for respective agents. The pharmaceutical agents of the present invention were administered 30 minutes after administration of the anti-tumor agents. After commencement of the treatment with pharmaceutical agents, the tumor sizes were measured every other day and compared with the control group.

The mark [9] stands for this setting: 3'-dUrd 0.8 mg/mouse + irradiation 1500 rad, irradiation alone 0%.
The mark [10] stands for this setting: 3'-dUrd 0.8 mg/mouse + irradiation 1500 rad, irradiation alone 0/10.
Setting [11] is: 3'-dUrd 150 μg/ml after 1,000 R.
The mark [12] stands for this setting: 3'-dUrd 300 μg/ml after 1,000 R.
[13] abbreviates: 3'-dUrd 600 μg/ml after 1,000 R.
[14] abbreviates: ACNU alone 25 mg/kg × 5, n = 7, before treatment 6.23 ± 0.76.
The mark [15] stands for this setting: ADM alone 2 mg/kg × 8, n = 10, before treatment 6.72 ± 1.00.
The mark [16] stands for this setting: araC alone 50 mg/kg × 8, n = 7, before treatment 6.11 ± 0.78.

Take `OC[C@H]1O[C@@H](n2cnc3c2N=CNC[C@H]3O)C[C@@H]1O` [2'-deoxycoformycin]: the Inhibition of adenosinedeaminase result in data set [1] is reported as “inhibitor against adenosinedeaminase”.

As to `O=c1ccn([C@@H]2O[C@H](CO)C[C@H]2O)c(=O)[nH]1` [3'-dUrd, 3'-deoxyuridine], the “Survival percent of the group irradiated with X-Rays” value (shortened to “Survival percent”) is reported as 45% in data set [2] (100 μg/ml, 200R, control 88); 19% in data set [2] (100 μg/ml, 400R, control 27); 5.2% in data set [2] (100 μg/ml, 600R, control 5.9); 1.8% in data set [2] (100 μg/ml, 800R, control 1.9); 39% in data set [2] (200 μg/ml, 200R, control 88); 15% in data set [2] (200 μg/ml, 400R, control 27). The “Survival percent” value in data set [2] (200 μg/ml, 600R, control 5.9) is given as 4.9%; in data set [2] (200 μg/ml, 800R, control 1.9), 1.8%; in data set [2] (400 μg/ml, 200R, control 88), 30%; in data set [2] (400 μg/ml, 400R, control 27), 13%; in data set [2] (400 μg/ml, 600R, control 5.9), 3.8%; in data set [2] (400 μg/ml, 800R, control 1.9), 1.2%. Moreover, the “Survival percent” value in data set [2] (800 μg/ml, 200R, control 88) is recorded as 29%; in data set [2] (800 μg/ml, 400R, control 27), 13%; in data set [2] (800 μg/ml, 600R, control 5.9), 3.8%; in data set [2] (800 μg/ml, 800R, control 1.9), 1.0%. In data set [2] (HA-1 cells, Table 2), the “Sensitizing effect under X-ray irradiation” value was “found to exhibit sensitizing effect especially with low dosage of irradiation with X-rays”. The viability in data set [3] (100 μg/ml) was determined as 85%; in data set [3] (200 μg/ml), 87%; in data set [3] (400 μg/ml), 85%; in data set [3] (800 μg/ml), 80%. For the same compound, the “Cure (number of mice)” value in data set [4] (3'-dUrd 0.8 mg/mouse + irradiation 1500 rad, 28 days, irradiation alone 1/10) is 3/7. Moreover, the “Cure (percent)” value in data set [4] (3'-dUrd 0.8 mg/mouse + irradiation 1500 rad, 28 days, irradiation alone 10%) was found to be 43%. Besides, in data set [4] (setting [9]), the “0.5 to less than 1 of volume ratio excluding cure; Tumor regression rate: slow (percent)” value is given as 0%. Besides, in data set [4] (setting [9]), the “Less than 0.5 of volume ratio excluding cure; Tumor regression rate: rapid (percent)” value is listed as 14%. Further, the “0.5 to less than 1 of volume ratio excluding cure; Tumor regression rate: slow (number)” value in data set [4] (setting [10]) is 0/7. In addition, in data set [4] (setting [10]), the “Less than 0.5 of volume ratio excluding cure; Tumor regression rate: rapid (number)” value is listed as 1/7. In addition, the “1.0 to less than 2.0 of volume ratio excluding cure; regrowth: slow (number)” value in data set [4] (3'-dUrd 0.8 mg/mouse + irradiation 1500 rad, irradiation alone 3/10) is 2/7. Besides, the “2.0 or more of volume ratio excluding cure; regrowth: rapid (number)” value in data set [4] (3'-dUrd 0.8 mg/mouse + irradiation 1500 rad, irradiation alone 6/10) is given as 1/7. The “1.0 to less than 2.0 of volume ratio excluding cure; regrowth: slow (percent)” value in data set [4] (3'-dUrd 0.8 mg/mouse + irradiation 1500 rad, irradiation alone 30%) is reported as 29%. Also, the “2.0 or more of volume ratio excluding cure; regrowth: rapid (percent)” value in data set [4] (3'-dUrd 0.8 mg/mouse + irradiation 1500 rad, irradiation alone 60%) came to 14%. Moreover, the “Mean tumor diameter 2 weeks after treatment” value in data set [4] (3'-dUrd 40 mg/kg i.p. 30 min before 1500 rad, n = 7, baseline 6.00 ± 0.41 mm, irradiation alone 7.41) stood at 6.31 ± 0.97 mm. In addition, in data set [4] (3'-dUrd 40 mg/kg i.p. 30 min before 1500 rad, n = 7, baseline 6.00 ± 0.41 mm, irradiation alone 8.29), the “Mean tumor diameter 3 weeks after treatment” value turned out to be 4.29 ± 1.73 mm. For the same compound, the “Diameter ratio 2 weeks after treatment” value in data set [4] (3'-dUrd 40 mg/kg i.p. 30 min before 1500 rad, n = 7, irradiation alone 1.09) worked out at 1.06 ± 0.15. Further, the “Diameter ratio 3 weeks after treatment” value in data set [4] (3'-dUrd 40 mg/kg i.p. 30 min before 1500 rad, n = 7, irradiation alone 1.17) is 0.66 ± 0.25. The “Volume ratio 2 weeks after treatment” value in data set [4] (3'-dUrd 40 mg/kg i.p. 30 min before 1500 rad, n = 7, irradiation alone 1.44) turned out to be 1.63 ± 0.44. Also, in data set [4] (3'-dUrd 40 mg/kg i.p. 30 min before 1500 rad, n = 7, irradiation alone 2.06), the “Volume ratio 3 weeks after treatment” value is 1.21 ± 0.60. Moreover, the Radiosensitizing activity entry in data set [5] is given as “excellent radiosensitizing activities”. Moreover, the viability at 9 h in data set [6] (3'-dUrd 150 μg/ml) is 65%; in data set [6] (3'-dUrd 300 μg/ml), 60%; in data set [6] (3'-dUrd 600 μg/ml), 58%. Further, the figures for the “Plating efficiency after 3 hours” value in data set [7] (setting [11]), in data set [7] (setting [12]) and in data set [7] (setting [13]) were 1.6%, 1.2% and 0.9%, respectively. The results for the “Plating efficiency after 6 hours” value in data set [7] (setting [11]), in data set [7] (setting [12]) and in data set [7] (setting [13]) were 2.2%, 1.9% and 1.6%, respectively. The “Plating efficiency after 9 hours” value in data set [7] (setting [11]) is reported as 3.5%; in data set [7] (setting [12]), 3.1%; in data set [7] (setting [13]), 2.6%. Besides, the “Inhibition of repair (PLDR) after irradiation with X-rays” value in data set [7] (HA-1 cells, Table 1) was “found to inhibit repair (PLDR) after irradiation with X-rays”. Moreover, the “Toxicity as examined by plating efficiencies” value in data set [7] (HA-1 cells, Table 1) is recorded as “Substantially no toxicity was observed”.

Turning to `Cc1ncc(CNC(=O)N(CCCl)N=O)c(N)n1` [ACNU, reference compound], in data set [8] (setting [14]), the “Mean tumor diameter 7 days after commencement of treatment” value (from here on “Mean tumor diameter 7 days”) was 5.51 ± 1.91 mm and the “Mean tumor diameter 14 days after commencement of treatment” value (shortened to “Mean tumor diameter 14 days”) was determined as 6.54 ± 1.82 mm. In addition, in data set [8] (ACNU alone 25 mg/kg × 5, n = 7), the “Mean tumor diameter ratio 7 days after commencement of treatment” value (“Mean tumor diameter ratio 7 days” for short) is reported as 0.87 ± 0.21 and the “Mean tumor diameter ratio 14 days after commencement of treatment” value (“Mean tumor diameter ratio 14 days” for short) stood at 1.06 ± 0.29.

On to `COc1cccc2c1C(=O)c1c(O)c3c(c(O)c1C2=O)C[C@@](O)(C(=O)CO)C[C@@H]3O[C@H]1C[C@H](N)[C@H](O)[C@H](C)O1` [ADM, Adriamycin, reference compound], for which, in data set [8] (setting [15]), the “Mean tumor diameter 7 days” value was found to be 7.67 ± 1.30 mm and the “Mean tumor diameter 14 days” value was determined as 9.04 ± 1.77 mm. In data set [8] (ADM alone 2 mg/kg × 8, n = 10), the “Mean tumor diameter ratio 7 days” value was determined as 1.17 ± 0.29 and the “Mean tumor diameter ratio 14 days” value is recorded as 1.38 ± 0.36.

As to `O=c1[nH]c(=O)n(C2CCCO2)cc1F` (stereo not drawn) [FT-207, 1-(2-tetrahydrofuryl)-5-fluorouracil, reference compound], in data set [8] (FT-207 alone 100 mg/kg × 6, n = 9, before treatment 6.96 ± 1.43, control 11.43), the “Mean tumor diameter 18 days after commencement of treatment” value is 8.37 ± 2.12 mm. In addition, the “Mean tumor diameter ratio 18 days after commencement of treatment” value in data set [8] (FT-207 alone 100 mg/kg × 6, n = 9, control 1.97) is reported as 1.20 ± 0.31.

Take `Nc1ccn([C@@H]2O[C@H](CO)[C@@H](O)[C@@H]2O)c(=O)n1` [araC, 1-β-D-arabinofuranosylcytosine, reference compound]: in data set [8] (setting [16]), the “Mean tumor diameter 7 days” value amounted to 7.11 ± 1.48 mm and the “Mean tumor diameter 14 days” value is 8.07 ± 2.62 mm. Moreover, in data set [8] (araC alone 50 mg/kg × 8, n = 7), the “Mean tumor diameter ratio 7 days” value stood at 1.16 ± 0.18 and the “Mean tumor diameter ratio 14 days” value is listed as 1.38 ± 0.46.

In the case of Bleomycin [BLM, reference compound], the “Mean tumor diameter 18 days after commencement of treatment” value in data set [8] (BLM alone 25 mg/kg × 4, n = 10, before treatment 6.12 ± 1.17, control 11.43 ± 2.30) is listed as 9.77 ± 2.50 mm. For the same compound, the “Mean tumor diameter ratio 18 days after commencement of treatment” value in data set [8] (BLM alone 25 mg/kg × 4, n = 10, control 1.97 ± 0.40) is 1.60 ± 0.41.
